Holding throughout (type): functional
The subject of assay [1] is Enterococcus faecalis. In words: Antimicrobial activity against vancomycin-resistant Enterococcus faecalis ATCC 51575 by CLSI protocol based broth microdilution method. On the technique in general: Broth dilution looks for growth in wells or tubes with falling amounts of substance.
For assay [2], the system named is Enterococcus faecalis. In words: Antimicrobial activity against vancomycin-sensitive Enterococcus faecalis ATCC 19433 by CLSI protocol based broth microdilution method.
The subject of assay [3] is Staphylococcus aureus. In words: Antimicrobial activity against methicillin-sensitive Staphylococcus aureus 8325-4 by CLSI protocol based broth microdilution method.
The test system of assay [4] is Staphylococcus aureus. In words: Antimicrobial activity against methicillin-resistant Staphylococcus aureus ATCC 33591 by CLSI protocol based broth microdilution method.

Structures are written as SMILES. ≈ marks a conversion by molar mass, not a printed value. A value given as a limit tells only on which side of the number the result lay.

By MIC is commonly meant the lowest concentration found to suppress growth. High values mean a need for much substance, low ones inhibition by little substance.

In the case of `CN[C@H](CC(C)C)C(=O)N[C@H]1C(=O)N[C@@H](CC(N)=O)C(=O)N[C@H]2C(=O)N[C@H]3C(=O)N[C@H](C(=O)N[C@H](C(=O)O)c4cc(O)cc(O)c4-c4cc3ccc4O)[C@H](O)c3ccc(c(Cl)c3)Oc3cc2cc(c3O[C@@H]2O[C@H](CO)[C@@H](O)[C@H](O)[C@H]2O[C@H]2C[C@](C)(N)[C@H](O)[C@H](C)O2)Oc2ccc(cc2Cl)[C@H]1O` [VANCOMYCIN], the MIC was > 64 µg/mL with Enterococcus faecalis [1] and 1 µg/mL (≈ 0.69 µM) against Enterococcus faecalis [2].
For the compound `COc1cc2c(ccc3c4ccc(OC)c(OC)c4c[n+](C)c23)c(C2CC2)c1OC.[Cl-]`, the MIC against Staphylococcus aureus [3] stood at 1 µg/mL; with Staphylococcus aureus [4], 2 µg/mL; in the assay with Enterococcus faecalis [1], 8 µg/mL; with Enterococcus faecalis [2], 8 µg/mL.
Consider `CN(C)[C@@H]1C(O)=C(C(N)=O)C(=O)[C@@]2(O)C(O)=C3C(=O)c4c(O)cccc4[C@@](C)(O)[C@H]3C[C@@H]12` [TETRACYCLINE], for which the MIC is 0.06 µg/mL (≈ 0.135 µM) with Staphylococcus aureus [3], 64 µg/mL (≈ 144 µM) in the assay with Staphylococcus aureus [4], > 64 µg/mL in the assay on Enterococcus faecalis [1] and 0.5 µg/mL (≈ 1.13 µM) in the assay with Enterococcus faecalis [2].
Take `COc1cc2c(ccc3c4ccc(OC)c(OC)c4c[n+](C)c23)c(C2=CCCCC2)c1OC.[Cl-]`: the MIC amounted to 2 µg/mL against Staphylococcus aureus [3], 4 µg/mL in the assay on Staphylococcus aureus [4], 32 µg/mL against Enterococcus faecalis [1] and 16 µg/mL against Enterococcus faecalis [2].
Take `Cc1onc(-c2ccccc2)c1C(=O)N[C@@H]1C(=O)N2[C@@H]1SC(C)(C)[C@@H]2C(=O)O` [OXACILLIN]: the minimum inhibitory concentration (MIC) is 0.06 µg/mL (≈ 0.149 µM) with Staphylococcus aureus [3], > 64 µg/mL in the assay with Staphylococcus aureus [4], > 64 µg/mL with Enterococcus faecalis [1] and 8 µg/mL (≈ 19.9 µM) in the assay on Enterococcus faecalis [2].
Consider `COc1cc2c(ccc3c4ccc(OC)c(OC)c4c[n+](C)c23)c(-c2ccccc2)c1OC.[Cl-]`, for which the MIC against Staphylococcus aureus [3] was determined as 1 µg/mL; against Staphylococcus aureus [4], 1 µg/mL; in the assay with Enterococcus faecalis [1], 4 µg/mL; in the assay on Enterococcus faecalis [2] it was 4 µg/mL.
As for `C=Cc1c(OC)c(OC)cc2c1ccc1c3ccc(OC)c(OC)c3c[n+](C)c21.[Cl-]`, the MIC is 1 µg/mL with Staphylococcus aureus [3], 2 µg/mL in the assay on Staphylococcus aureus [4], 8 µg/mL against Enterococcus faecalis [1] and 8 µg/mL with Enterococcus faecalis [2].
In the case of `C[n+]1cc2c3c(ccc2c2ccc4cc5c(cc4c21)OCO5)OCO3.[Cl-]` [SANGUINARIUM CHLORIDE], the MIC in the assay on Staphylococcus aureus [3] is 2 µg/mL; in the assay on Staphylococcus aureus [4], 2 µg/mL; against Enterococcus faecalis [1], 16 µg/mL; in the assay with Enterococcus faecalis [2], 8 µg/mL.
With `COc1cc2ccc3c4ccc(OC)c(OC)c4c[n+](C)c3c2cc1OC.[Cl-]`, the MIC against Staphylococcus aureus [3] is 32 µg/mL; in the assay on Staphylococcus aureus [4], 32 µg/mL; in the assay with Enterococcus faecalis [1], > 64 µg/mL; in the assay with Enterococcus faecalis [2], > 64 µg/mL.
Regarding `COc1cc2c(ccc3c4ccc(OC)c(OC)c4c[n+](C)c23)c(-c2ccc(-c3ccccc3)cc2)c1OC.[Cl-]`, the minimal inhibitory concentration (MIC) in the assay on Staphylococcus aureus [3] was found to be 0.5 µg/mL; in the assay on Staphylococcus aureus [4], 0.5 µg/mL; in the assay with Enterococcus faecalis [1], 8 µg/mL; in the assay with Enterococcus faecalis [2], 4 µg/mL.
As for `CC[C@H]1OC(=O)[C@H](C)[C@@H](O[C@H]2C[C@@](C)(OC)[C@@H](O)[C@H](C)O2)[C@H](C)[C@@H](O[C@@H]2O[C@H](C)C[C@H](N(C)C)[C@H]2O)[C@](C)(O)C[C@@H](C)C(=O)[C@H](C)[C@@H](O)[C@]1(C)O` [ERYTHROMYCIN], the minimal inhibitory concentration (MIC) in the assay on Staphylococcus aureus [3] was 0.13 µg/mL (≈ 0.177 µM); against Staphylococcus aureus [4], > 64 µg/mL; in the assay with Enterococcus faecalis [1] it was > 64 µg/mL; against Enterococcus faecalis [2], 1 µg/mL (≈ 1.36 µM).
For the compound `COc1cc2c(ccc3c4ccc(OC)c(OC)c4c[n+](C)c23)c(C2CCCCC2)c1OC.[Cl-]`, the MIC in the assay on Staphylococcus aureus [3] amounted to 1 µg/mL; against Staphylococcus aureus [4], 2 µg/mL; against Enterococcus faecalis [1], 8 µg/mL; against Enterococcus faecalis [2] it was 8 µg/mL.
Consider `COc1cc2c(ccc3c4ccc(OC)c(OC)c4c[n+](C)c23)c(-c2cccnc2)c1OC.[Cl-]`, for which the MIC was 8 µg/mL in the assay on Staphylococcus aureus [3], 32 µg/mL against Staphylococcus aureus [4], 32 µg/mL in the assay with Enterococcus faecalis [1] and 32 µg/mL against Enterococcus faecalis [2].
For the compound `COc1cc2c(ccc3c4ccc5c(c4c[n+](C)c23)OCO5)c(-c2ccccc2)c1OC.[Cl-]`, the minimal inhibitory concentration (MIC) with Staphylococcus aureus [3] was 1 µg/mL; against Staphylococcus aureus [4], 2 µg/mL; in the assay on Enterococcus faecalis [1], 8 µg/mL; in the assay on Enterococcus faecalis [2], 8 µg/mL.
Regarding `COc1cc2c(ccc3c4ccc5c(c4c[n+](C)c23)OCO5)c(-c2ccc(-c3ccccc3)cc2)c1OC.[Cl-]`, the MIC was 2 µg/mL in the assay with Staphylococcus aureus [3], 2 µg/mL in the assay on Staphylococcus aureus [4], 8 µg/mL against Enterococcus faecalis [1] and 8 µg/mL with Enterococcus faecalis [2].
In the case of `COc1cc2c(-c3ccc(-c4ccccc4)cc3)cc3c4ccc(OC)c(OC)c4c[n+](C)c3c2cc1OC.[Cl-]`, the MIC worked out at 0.5 µg/mL against Staphylococcus aureus [3], 0.5 µg/mL against Staphylococcus aureus [4], 16 µg/mL in the assay on Enterococcus faecalis [1] and 16 µg/mL in the assay with Enterococcus faecalis [2].
As to `COc1cc2ccc3c4ccc5c(c4c[n+](C)c3c2cc1OC)OCO5.[Cl-]`, the MIC was 32 µg/mL against Staphylococcus aureus [3], 32 µg/mL against Staphylococcus aureus [4], > 64 µg/mL against Enterococcus faecalis [1] and 64 µg/mL in the assay with Enterococcus faecalis [2].
Take `COc1cc2c(-c3ccc(-c4ccccc4)cc3)cc3c4ccc5c(c4c[n+](C)c3c2cc1OC)OCO5.[Cl-]`: the MIC turned out to be 2 µg/mL in the assay with Staphylococcus aureus [3], 2 µg/mL with Staphylococcus aureus [4], 8 µg/mL with Enterococcus faecalis [1] and 4 µg/mL in the assay with Enterococcus faecalis [2].
In the case of `CCC[C@@H]1C[C@@H](C(=O)N[C@@H]([C@H]2O[C@H](SC)[C@H](O)[C@@H](O)[C@H]2O)[C@H](C)Cl)N(C)C1` [CLINDAMYCIN], the MIC against Staphylococcus aureus [3] was 0.03 µg/mL (≈ 0.0706 µM); with Staphylococcus aureus [4], > 64 µg/mL; in the assay with Enterococcus faecalis [1], > 64 µg/mL; against Enterococcus faecalis [2] it was 2 µg/mL (≈ 4.71 µM).
Consider `COc1cc(-c2c(OC)c(OC)cc3c2ccc2c4ccc(OC)c(OC)c4c[n+](C)c32)cc(OC)c1OC.[Cl-]`, for which the MIC in the assay with Staphylococcus aureus [3] was 4 µg/mL; against Staphylococcus aureus [4], 4 µg/mL; in the assay on Enterococcus faecalis [1], 32 µg/mL; against Enterococcus faecalis [2] it was 32 µg/mL.
For `COc1cc2c(ccc3c4ccc(OC)c(OC)c4c[n+](C)c23)c(-c2ccoc2)c1OC.[Cl-]`, the MIC was found to be 1 µg/mL in the assay on Staphylococcus aureus [3], 1 µg/mL in the assay on Staphylococcus aureus [4], 16 µg/mL in the assay with Enterococcus faecalis [1] and 16 µg/mL against Enterococcus faecalis [2].
For `COc1cc2c(ccc3c4ccc(OC)c(OC)c4c[n+](C)c23)c(-c2ccc(N(C)C)cc2)c1OC.[Cl-]`, the MIC in the assay on Staphylococcus aureus [3] was 1 µg/mL; with Staphylococcus aureus [4], 1 µg/mL; in the assay on Enterococcus faecalis [1], 8 µg/mL; in the assay with Enterococcus faecalis [2], 8 µg/mL.
Take `COc1cc2c(-c3ccccc3)cc3c4ccc(OC)c(OC)c4c[n+](C)c3c2cc1OC.[Cl-]`: the MIC is 1 µg/mL with Staphylococcus aureus [3], 2 µg/mL in the assay on Staphylococcus aureus [4], 16 µg/mL against Enterococcus faecalis [1] and 8 µg/mL against Enterococcus faecalis [2].
